{"source": "patent US20150374718A1", "about": "“Zhankuic Acid A and Analogs thereof and Their Use as an Anti-Inflammatory Agent” (National Cheng Kung University, priority 2014, published 2015)", "key": {"[1]": {"test_system": "murine peritoneal macrophages", "assay": "Cell viability by MTS and SRB assays", "type": "cell-based", "settings": "up to 30 μM for 72 h; resident or LPS-activated macrophages; listed as ZAA", "method": "FIG. 6. ZAA is not cytotoxic to murine peritoneal macrophages. (A) Cells were incubated with various concentrations of ZAA for 72 h. Cell viability was determined by colorimetric tetrazolium (MTS) and sulphorhodamine B (SRB) assays. The absorbance was measured at 490 and 590 nm for MTS and SRB assays, respectively. […] Cell viability was determined by the SRB assay.\nWe first investigated the anti-inflammatory properties of ZAA purified from T. camphoratus. During inflammation, large amounts of pro-inflammatory mediators, NO, and prostaglandin E2 (PGE2) are generated by iNOS and COX2."}, "LPS-induced lethality": {"test_system": "LPS-induced lethality", "assay": "LPS-induced sepsis model (lethality)", "type": "in vivo", "settings": "C3H/HeN mice; ZAA 2 or 10 mg/kg i.p., LPS 20 mg/kg i.p.", "method": "The mice were monitored every 2-4 h until all C3H/HeN mice in the ZAA-untreated and LPS-treated group expired."}, "[2]": {"test_system": "LPS-induced lung and renal injury", "assay": "LPS-induced lung and renal injury in mice", "settings": "ZAA 20 mg/kg i.p., LPS 4 mg/kg i.p., 10 h", "experimental": "After 10 h, mice were sacrificed, and their lung and kidney tissues were removed. […] (B) The number of infiltrated PMNs in each alveolus was observed by light microscopy (original magnification ×200). The number of PMNs was counted in four randomly chosen fields per slide for each mouse and normalized to the number of alveoli. […] Values shown in B-D are means ±SD (n=10; **p<0.01 and ***p<0.001).\nThe lung and kidney were embedded in paraffin, sectioned, and stained with hematoxylin and eosin. Serum samples were collected for determination of blood urea nitrogen (BUN) and serum creatinine levels."}, "S. choleraesuis": {"test_system": "S. choleraesuis", "assay": "S. choleraesuis-induced diarrhea model in mice", "experimental": "(A and B) C57BL/6 mice that had been pretreated intraperitoneally with ZAA (2 or 10 mg/kg) or the vehicle for 30 min were orally administered with kanamycin-resistant S. choleraesuis (2×10^9 CFU/mouse). Diarrhea was scored after 2 days on a 0-3 scale (0=normal pellets, 1=slightly loose feces, 2=loose feces, and 3=watery diarrhea) (A). Body weight was recorded every 2 days for 2 weeks (n=9-12; **p<0.01 and ***p<0.001) (B). (C) Fecal samples were collected at 24-h intervals until 96 h after S. choleraesuis infection and assessed for viable bacterial CFU counts (n=10; **p<0.01 and ***p<0.001).\nThe pEGFP-N1 (ΔEGFP)-transformed S. choleraesuis (2×10^9 CFU/mouse) was orally administered to mice with or without oral pretreatment of ZAA (2 or 10 mg/kg). […] Fecal samples were collected at 24-h intervals until 96 h after S. choleraesuis infection. S. choleraesuis in the feces was quantified by plating serial dilutions of fecal samples on kanamycin-containing agar plates and counting colonies after overnight incubation at 37° C. Mice were monitored daily for symptoms of diarrhea and loss of body weight. Diarrhea was defined according to a diarrhea score of 0-3 (0=normal pellets, 1=slightly loose feces, 2=loose feces, and 3=watery diarrhea) as previously described (21)."}}}
{"compound": "C=C(CC[C@@H](C)[C@H]1CC[C@H]2C3=C(C(=O)C[C@]12C)[C@@]1(C)CCC(=O)[C@@H](C)[C@@H]1CC3=O)C(C)C(=O)O", "note": "(some centres unmarked) [No. 1, Zhankuic acid A]", "values": [{"measurement": "cytotoxic effects (MTS and SRB)", "setting": "[1]", "value": "did not exert any cytotoxic effects"}, {"measurement": "protection against LPS-induced lethality (survival)", "setting": "LPS-induced lethality", "value": "significantly protected"}, {"measurement": "LPS-induced pulmonary accumulation of PMNs", "setting": "[2]; C3H/HeN mice", "value": "significantly prevented"}, {"measurement": "extent of LPS-induced glomerulonephritis", "setting": "[2]; C3H/HeN mice", "value": "significantly reduced"}, {"measurement": "BUN level", "setting": "[2]", "value": "markedly reduced"}, {"measurement": "serum creatinine level", "setting": "[2]", "value": "markedly reduced"}, {"measurement": "fecal bacterial level", "setting": "S. choleraesuis; 96 h after bacterial infection, ZAA 10 mg/kg", "value": "undetectable"}, {"measurement": "body weight loss", "setting": "S. choleraesuis; C57BL/6 mice, ZAA 10 mg/kg", "value": "dramatically attenuated"}, {"measurement": "time to return to normal body weight", "setting": "S. choleraesuis; C57BL/6 mice, ZAA 10 mg/kg", "value": "≤ 2", "unit": "weeks"}, {"measurement": "fecal bacterial load", "setting": "S. choleraesuis; C57BL/6 mice, ZAA 2 or 10 mg/kg, 24-96 h, dose- and time-dependent", "value": "dramatically reduced"}, {"measurement": "diarrhea score", "setting": "S. choleraesuis; C57BL/6 mice, ZAA 2 or 10 mg/kg, scored after 2 days, 0-3 scale", "value": "reduced"}]}
